Entries after “also recorded” stand apart in the source; their conditions may differ.
Assays:
OAT3 = settings: cited from earlier work
[1] = Pharmacokinetics in C57BL/6 mice; type: in vivo, mouse; settings: male
Procedure: (§1) Adult male C57BL/6 mice and Sprague Dawley rats were purchased from Charles River Laboratory (Wilmington, MA). PK studies for mice and rats were conducted at NIH animal facility (Bethesda, MD). In-life dog and monkey PK studies were conducted at Absorption System (San Diego, CA) and Frontage Labs (Concord, OH), respectively. Dogs and monkeys were fasted overnight prior to dose administrations. All experimental procedures were reviewed and approved by the Animal Care and Use Committee (ACUC) of the NIH Division of Veterinary Resources (DVR) or CRO labs for in-life studies.
Male C57BL6 mice (n = 3 per time point, 24–40 g) were dosed at 5 mg/kg IV or 10 mg/kg oral gavage. The dosing volume was 3 mL/kg for IV and 10 ml/kg for PO. All dosing solutions were freshly prepared on the day of administration. Blood samples were collected over 24 h.
(§2) Blood samples from all groups and species were collected in K2EDTA tubes and stored on wet ice pending processing. Blood was centrifuged at 2200 g at 4°C for 10 min to isolate plasma. All samples were stored at -80°C until analysis.
(§3) Phoenix WinNonlin, version 8.1 (Certara, St. Louis, MO), was used to perform PK analysis with the non-compartmental approach (Models 200 and 201 for PO and IV datasets). The area under the plasma concentration vs. time curve (AUC) was calculated using the linear trapezoidal method. The terminal rate constant (λ) was obtained from the slope of at least three data points of the apparent terminal phase of the log-linear plasma concentration vs. time curve when available. AUC0–∞ was estimated as the sum of the AUC0–t (where t is the time of the last measurable concentration) and Ct/λ. The apparent terminal half-life (t½) was calculated as 0.693/λ. Bioavailability (F) was calculated using ratios of dose normalized AUC (AUC/Dose) obtained from PO and IV PK studies.

ENT1 = ENT1 (Homo sapiens, UniProt Q99808); test: Nucleoside transporter uptake, ENT1-transfected MDCK cells
Sequence of ENT1 (Q99808 whole entry): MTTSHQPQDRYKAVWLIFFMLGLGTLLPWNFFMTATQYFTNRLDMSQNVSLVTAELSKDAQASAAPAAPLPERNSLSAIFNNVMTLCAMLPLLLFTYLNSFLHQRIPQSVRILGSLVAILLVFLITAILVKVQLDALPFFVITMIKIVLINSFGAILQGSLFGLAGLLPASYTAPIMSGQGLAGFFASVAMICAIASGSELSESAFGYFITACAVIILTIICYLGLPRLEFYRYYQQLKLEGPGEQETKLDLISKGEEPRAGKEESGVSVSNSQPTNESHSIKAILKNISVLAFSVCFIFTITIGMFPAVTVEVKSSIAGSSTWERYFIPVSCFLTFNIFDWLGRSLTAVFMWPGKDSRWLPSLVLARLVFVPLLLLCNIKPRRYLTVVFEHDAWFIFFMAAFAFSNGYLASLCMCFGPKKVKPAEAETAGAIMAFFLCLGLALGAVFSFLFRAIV

CNT1 = target: T1, CNT1 (Homo sapiens, UniProt O00337); test: Nucleoside transporter uptake, CNT1-transfected MDCK cells; type: in vitro ADME
T1 construct: expressed in transfected cells; host or cells: MDCK-II
T1 sequence (O00337 1-649): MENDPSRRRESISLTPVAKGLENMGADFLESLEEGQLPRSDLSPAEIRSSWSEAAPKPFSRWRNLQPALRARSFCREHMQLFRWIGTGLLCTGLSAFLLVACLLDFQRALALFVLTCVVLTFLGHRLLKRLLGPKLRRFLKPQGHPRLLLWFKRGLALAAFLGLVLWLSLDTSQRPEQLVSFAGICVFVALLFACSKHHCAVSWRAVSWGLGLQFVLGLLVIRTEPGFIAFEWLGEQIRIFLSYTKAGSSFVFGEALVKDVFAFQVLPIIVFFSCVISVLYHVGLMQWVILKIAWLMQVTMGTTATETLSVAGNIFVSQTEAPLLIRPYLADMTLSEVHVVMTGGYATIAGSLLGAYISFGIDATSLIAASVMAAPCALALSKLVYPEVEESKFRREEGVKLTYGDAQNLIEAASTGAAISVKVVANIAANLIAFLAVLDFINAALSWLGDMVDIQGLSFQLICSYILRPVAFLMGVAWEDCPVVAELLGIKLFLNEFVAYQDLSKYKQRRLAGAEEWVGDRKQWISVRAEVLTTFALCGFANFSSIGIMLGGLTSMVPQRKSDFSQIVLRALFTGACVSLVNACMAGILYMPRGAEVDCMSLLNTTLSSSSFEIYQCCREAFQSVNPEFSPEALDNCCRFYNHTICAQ
Excerpt: (§4) Each condition was run in triplicate.

ENT2 = target: T2, ENT2 (Homo sapiens, UniProt Q14542); test: Nucleoside transporter uptake, ENT2-transfected MDCK cells; type: in vitro ADME
T2 construct: expressed in transfected cells; host or cells: MDCK-II
T2 sequence (Q14542 whole entry): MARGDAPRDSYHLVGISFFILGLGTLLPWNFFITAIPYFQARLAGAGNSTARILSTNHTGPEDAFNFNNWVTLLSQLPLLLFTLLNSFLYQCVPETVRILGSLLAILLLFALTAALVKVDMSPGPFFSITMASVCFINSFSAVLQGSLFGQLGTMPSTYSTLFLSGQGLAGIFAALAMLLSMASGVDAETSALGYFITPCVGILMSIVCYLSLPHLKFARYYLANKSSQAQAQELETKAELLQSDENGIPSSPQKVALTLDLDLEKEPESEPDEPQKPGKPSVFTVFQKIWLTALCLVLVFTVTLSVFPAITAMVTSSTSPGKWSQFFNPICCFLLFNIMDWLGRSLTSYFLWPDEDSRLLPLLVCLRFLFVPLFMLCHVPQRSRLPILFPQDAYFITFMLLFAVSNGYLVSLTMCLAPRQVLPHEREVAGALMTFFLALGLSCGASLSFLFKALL
Excerpt: as §4

in vitro = in vitro ADME, human; settings: Sprague-Dawley (rat), CD-1 (mouse), Beagle (dog), monkey
Procedure: Plasma protein binding experiments were carried out in mixed-gender human plasma, male Sprague-Dawley rat plasma, male CD-1 plasma, male Beagle dog plasma, and male Cynomolgus monkey plasma (BioIVT) using a Pierce Rapid Equilibration Dialysis (RED) device. […] Blank phosphate-buffered saline (PBS) (500 μL) was added to each corresponding receiver chamber. After 4 h of incubation (with shaking at 37°C), both sides were aliquoted, and matrix was normalized. Samples were centrifuged at 1000 g for 10 min after adding two volumes of ACN with IS. Supernatants were diluted 1:1 with water and analyzed with LC-MS/MS.
Plasma Protein binding was calculated as follows:
% Bound = [(PARR in Donor–PARR in Receiver)/(PARR in Donor)] × 100.
PARR = peak area response ratio to internal standard, including applicable dilution factors.

[2] = Pharmacokinetics in Beagle dogs; type: in vivo, dog; settings: for half-life: plasma
Procedure: as §1
The dosing volume was 1.0 mL/kg for both groups. Plasma (both IV and PO groups) and urine (IV group) samples were collected over a period of 48 h.
as §2, §3

[3] = 7-days dose range finding study in monkeys; settings: oral, 7 days, 1,000 mg/kg/day
[4] = C57BL/6, mouse, in vivo, iv, 5 mg/kg
[5] = C57BL/6, mouse, in vivo, po, 10 mg/kg
[6] = male, beagle, dog, in vivo, iv, 2 mg/kg
[7] = male, beagle, dog, in vivo, po, 5 mg/kg

In the case of N#C[C@@]1(c2ccc3c(N)ncnn23)O[C@H](CO)[C@@H](O)[C@H]1O [GS-441524], the “Substrate of OAT3” value (OAT3) is given as “not a substrate”, the Vd [1, 4] is given as 2.4 L/kg and the clearance [1, 4] is given as 26 mL/min/kg. For the same molecule, the AUC(0-inf) [1, 5] was 2540 ng·h/mL, the Cmax [1, 5] was 582 ng/mL and the Tmax [1, 5] was 1.5 h. For the same molecule, the bioavailability [1, 5] was 39%, the half-life ([1]; C57BL/6, plasma, Mouse, PO 10 mg/kg) was 3.9 h and the “Inhibition of uptake by reference inhibitor” value (ENT1; ENT1-transfected cells, reference inhibitor NBMPR, 30 µM GS-441524) was 92.3%. For the same molecule, the “Substrate of ENT1” value (ENT1; MDCK) was “substrate”, the “Substrate of CNT1” value (CNT1) was “not a substrate; also recorded: unlikely to be a substrate” and the Transporter uptake rate (CNT1; CNT1, 10 μM, LOQ = 0.222 pmol/min/cm^2) was “BLQ”. The “Difference in uptake compared to control cells” value (CNT1; CNT1-transfected cells) was “less than 2 fold”, the “Substrate of ENT2” value (ENT2) was “substrate” and the “Inhibition of uptake by reference inhibitor” value (ENT2; ENT2-transfected cells, 100 µM adenosine) was “did not inhibit; also recorded: no inhibition was observed”. For the same molecule, the fraction unbound at 4 h, 10 µM (in vitro; both (human, mixed-gender), male (animals), human) was 0.62 to 0.78, the fraction unbound at 4 h, 10 µM (in vitro; male, plasma) was 0.62 to 0.64 and the t1/2 ([2]; Dog, PO 5 mg/kg, 5 mg/kg) was 4.1 ± 1.1 h. The Vd ([2]; male, Beagle, dog, in vivo, iv, 2 mg/kg, Vdss) was 0.9 L/kg, the half-life ([2]; male, Beagle, dog, iv, 2 mg/kg, IV 2 mg/kg) was roughly 4 h and the half-life ([2]; male, Beagle, dog, po, 5 mg/kg, PO 5 mg/kg) was roughly 4 h. The “Mean urinary excretion of unchanged parent drug” value [2, 6] was roughly 64%, the clearance [2, 6] was 4.1 ± 0.7 mL/min/kg and the Cmax [2, 7] was 6010 ng/mL. It also gave a Tmax [2, 7] of 0.28 ± 0.19 h, a bioavailability [2, 7] of 85 ± 17% and an AUC(0-inf) ([2]; male, beagle, in vivo, Dog, PO 5 mg/kg) of 19000 ng·h/mL. For the same molecule, the “Tolerability at maximum feasible dose” value [3] was “well tolerated”.

From article PMC9424906 (Frontiers in Pharmacology, 2022)
